Laboratory results: patent US10544147B2, “Purine inhibitors of human phosphatidylinositol 3-kinase delta” (MERCK SHARP & DOHME CORP., priority 2016, dated 2020)

Assays:
[1] = target: PI3Kdelta (Homo sapiens (Human), UniProt O00329); assay: HTRF PI3K biochemical assay, delta isoform; settings: 0.3 nM enzyme, 100 uM ATP, 50 uM PIP2; form screened (neutral or TFA salt)
Method: (§1) HTRF PI3K Biochemical Assay to Measure Intrinsic Potency of Compound Inhibitors
(§2) This loss of signal is nonlinear with respect to both increasing product and time. This non-linear detection will impact accuracy of IC50 calculations; therefore, there is a need for a correction factor to obtain more accurate IC50 values. This correction is derived from a PIP3 standard curve run in a separate assay plate. All data were calculated using the ratio of acceptor (APC) to donor (Europium) fluorescence in each well of the assay plate. […] An IC50 was then calculated fitting the % inhibition data to the equation: % inhibition=min+(Max−min)/1+([inhibitor]/IC50)^n) where min is the % inhibition with inhibitor, max is the signal in DMSO control, and n is the Hill slope.
(§3) The biological data was collected using the methodology described above.

[2] = target: PI3Kalpha (Homo sapiens (Human), UniProt P42336); assay: HTRF PI3K biochemical assay, alpha isoform (selectivity versus delta); settings: ratio PI3K-alpha IC50 value/PI3K-delta IC50 value
Sequence of PI3Kalpha (P42336 whole entry, canonical isoform): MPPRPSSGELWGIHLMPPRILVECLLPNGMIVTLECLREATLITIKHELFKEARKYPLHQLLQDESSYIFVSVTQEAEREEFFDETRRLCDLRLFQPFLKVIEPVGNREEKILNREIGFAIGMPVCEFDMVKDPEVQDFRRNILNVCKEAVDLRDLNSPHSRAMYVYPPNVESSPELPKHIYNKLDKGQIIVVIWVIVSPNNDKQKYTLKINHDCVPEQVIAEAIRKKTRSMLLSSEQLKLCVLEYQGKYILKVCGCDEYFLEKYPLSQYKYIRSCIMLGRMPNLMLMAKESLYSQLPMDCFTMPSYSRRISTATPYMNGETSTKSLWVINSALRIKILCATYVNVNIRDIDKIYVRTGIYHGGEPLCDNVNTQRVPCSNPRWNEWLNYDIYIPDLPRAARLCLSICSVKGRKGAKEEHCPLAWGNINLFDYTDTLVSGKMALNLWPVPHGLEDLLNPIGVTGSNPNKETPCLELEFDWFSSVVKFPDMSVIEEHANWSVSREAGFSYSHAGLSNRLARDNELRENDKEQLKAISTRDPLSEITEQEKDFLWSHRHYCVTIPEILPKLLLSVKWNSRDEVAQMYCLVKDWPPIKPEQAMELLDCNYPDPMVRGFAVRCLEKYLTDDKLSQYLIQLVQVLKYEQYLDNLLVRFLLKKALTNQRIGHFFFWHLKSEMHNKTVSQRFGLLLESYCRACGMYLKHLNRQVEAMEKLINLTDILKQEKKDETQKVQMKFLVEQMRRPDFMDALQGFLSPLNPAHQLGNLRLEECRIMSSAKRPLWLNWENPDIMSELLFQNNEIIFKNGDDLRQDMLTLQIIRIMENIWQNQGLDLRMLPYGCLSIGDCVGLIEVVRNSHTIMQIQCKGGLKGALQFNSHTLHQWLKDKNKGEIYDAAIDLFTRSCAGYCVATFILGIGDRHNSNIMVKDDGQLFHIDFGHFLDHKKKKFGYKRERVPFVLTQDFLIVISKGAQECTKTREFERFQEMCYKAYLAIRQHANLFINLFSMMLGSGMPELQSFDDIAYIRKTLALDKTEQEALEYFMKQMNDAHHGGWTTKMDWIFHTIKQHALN
Sequence of PI3Kalpha (P27986 whole entry partner, canonical isoform): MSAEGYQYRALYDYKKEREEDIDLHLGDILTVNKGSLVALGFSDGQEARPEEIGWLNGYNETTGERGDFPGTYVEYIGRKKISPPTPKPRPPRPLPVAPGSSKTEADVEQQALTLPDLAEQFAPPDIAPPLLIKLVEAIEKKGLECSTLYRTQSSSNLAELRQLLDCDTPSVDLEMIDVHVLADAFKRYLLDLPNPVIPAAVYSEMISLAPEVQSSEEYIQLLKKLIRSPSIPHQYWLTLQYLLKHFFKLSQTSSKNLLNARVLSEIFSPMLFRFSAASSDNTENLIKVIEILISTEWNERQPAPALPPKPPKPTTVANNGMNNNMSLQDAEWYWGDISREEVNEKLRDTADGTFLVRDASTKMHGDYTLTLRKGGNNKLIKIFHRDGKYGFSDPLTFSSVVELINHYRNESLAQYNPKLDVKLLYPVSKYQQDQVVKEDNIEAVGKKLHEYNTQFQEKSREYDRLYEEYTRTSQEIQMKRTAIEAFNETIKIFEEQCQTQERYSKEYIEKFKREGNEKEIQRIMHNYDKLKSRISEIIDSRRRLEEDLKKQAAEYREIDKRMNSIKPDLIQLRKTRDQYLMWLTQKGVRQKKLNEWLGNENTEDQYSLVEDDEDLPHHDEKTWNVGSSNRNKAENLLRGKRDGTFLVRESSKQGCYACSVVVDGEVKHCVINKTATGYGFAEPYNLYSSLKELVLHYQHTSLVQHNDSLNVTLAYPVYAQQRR
Method: as §1, §2, §3
The determination of relative selectivity for a given compound is defined as the relative ratio of the (PI3K-alphaIC50 value/PI3K-delta IC50 value).

Sequence of PI3Kdelta (O00329 whole entry, canonical isoform): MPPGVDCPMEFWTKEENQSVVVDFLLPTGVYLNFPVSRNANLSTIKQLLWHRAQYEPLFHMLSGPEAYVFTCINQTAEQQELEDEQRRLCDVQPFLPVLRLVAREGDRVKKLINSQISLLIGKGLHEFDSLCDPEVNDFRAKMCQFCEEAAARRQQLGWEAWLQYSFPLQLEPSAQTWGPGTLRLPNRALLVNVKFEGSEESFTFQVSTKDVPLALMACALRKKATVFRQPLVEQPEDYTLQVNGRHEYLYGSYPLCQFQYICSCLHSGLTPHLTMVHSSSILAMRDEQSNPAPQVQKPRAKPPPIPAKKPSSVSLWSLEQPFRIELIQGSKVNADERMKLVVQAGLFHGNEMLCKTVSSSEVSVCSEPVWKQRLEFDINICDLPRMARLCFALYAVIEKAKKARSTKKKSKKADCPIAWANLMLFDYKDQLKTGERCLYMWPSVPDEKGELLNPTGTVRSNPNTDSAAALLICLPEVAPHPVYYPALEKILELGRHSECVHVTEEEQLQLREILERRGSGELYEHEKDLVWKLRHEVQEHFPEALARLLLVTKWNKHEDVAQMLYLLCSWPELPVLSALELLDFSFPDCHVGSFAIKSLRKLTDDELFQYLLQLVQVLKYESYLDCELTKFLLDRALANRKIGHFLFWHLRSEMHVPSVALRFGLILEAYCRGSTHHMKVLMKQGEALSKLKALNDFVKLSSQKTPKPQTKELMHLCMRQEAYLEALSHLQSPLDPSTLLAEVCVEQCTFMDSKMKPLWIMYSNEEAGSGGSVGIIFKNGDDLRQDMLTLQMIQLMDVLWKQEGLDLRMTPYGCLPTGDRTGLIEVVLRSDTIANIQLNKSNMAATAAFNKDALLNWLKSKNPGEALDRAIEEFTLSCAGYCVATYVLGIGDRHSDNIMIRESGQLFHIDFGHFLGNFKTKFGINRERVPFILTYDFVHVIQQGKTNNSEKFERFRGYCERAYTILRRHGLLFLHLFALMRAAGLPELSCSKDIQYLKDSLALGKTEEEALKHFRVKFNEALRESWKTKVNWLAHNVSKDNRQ
Sequence of PI3Kdelta (P27986 whole entry partner, canonical isoform): as the sequence (P27986 whole entry partner, canonical isoform) above

| Structure (SMILES) | IC50 [1] [nM] | Relative Selectivity versus PI3Kalpha [2] |
| --- | --- | --- |
| CCn1c(-c2cnc(C)nc2)nc2c(-c3ccc4c(c3)C(C)(N3CC(C)(O)C3)C(=O)N4)ncnc21 (single isomer, unassigned) [Compound 2-81, (R or S)-5-(9-ethyl-8-(2-methylpyrimidin-5-yl)-9H-purin-6-yl)-3-(3-hydroxy-3-methylazetidin-1-yl)-3-methylindolin-2-one] | 26 | >10 |
| CCn1c(-c2cnc(C)nc2)nc2c(-c3ccc4c(c3)C(C)(CC3(C)COC3)C(=O)N4)ncnc21 (single isomer, unassigned) [Compound 1-5, (R or S)-5-[9-ethyl-8-(2-methylpyrimidin-5-yl)-9H-purin-6-yl]-3-methyl-3-[(3-methyloxetan-3-yl)methyl]-1,3-dihydro-2H-indol-2-one] | 177 | 3 |
| CCn1c(-c2cnc(C)nc2)nc2c(-c3ccc4c(c3)C(C)(N3CC5(CCO5)C3)C(=O)N4)ncnc21 (single isomer, unassigned) [Compound 2-8, (R or S)-5-[9-ethyl-8-(2-methylpyrimidin-5-yl)-9H-purin-6-yl]-3-methyl-3-(1-oxa-6-azaspiro[3.3]hept-6-yl)-1,3-dihydro-2H-indol-2-one] | 129 | >10 |
| CCn1c(-c2cnc(C)nc2)nc2c(-c3ccc4c(c3)C(C)(N(C)C(C)C)C(=O)N4)ncnc21 (racemic) [Compound 2-15, (R and S)-5-[9-ethyl-8-(2-methylpyrimidin-5-yl)-9H-purin-6-yl]-3-methyl-3-[methyl(1-methylethyl)amino]-1,3-dihydro-2H-indol-2-one] | 46 | >10 |
| CCn1c(-c2cnc(C)nc2)nc2c(-c3ccc4c(c3)C(C)(CC(C)C)C(=O)N4)ncnc21 (single isomer, unassigned) [Compound 1-2, 5-(9-Ethyl-8-(2-methylpyrimidin-5-yl)-9H-purin-6-yl)-3-isobutyl-3-methylindolin-2-one] | 121 | >10 |
| CCn1c(-c2cnc(C)nc2)nc2c(-c3ccc4c(c3)C(C)(CC3CC3)C(=O)N4C)ncnc21 (single isomer, unassigned) [Compound 1-10, 3-(Cyclopropylmethyl)-5-(9-ethyl-8-(2-methylpyrimidin-5-yl)-9H-purin-6-yl)-1,3-dimethylindolin-2-one] | 194 | >10 |
| CCn1c(-c2cnc(C)nc2)nc2c(-c3ccc4c(c3)C(C)(NCC3CCC3)C(=O)N4)ncnc21 (racemic) [Compound 2-20, (R and S)-3-[(cyclobutylmethyl)amino]-5-[9-ethyl-8-(2-methylpyrimidin-5-yl)-9H-purin-6-yl]-3-methyl-1,3-dihydro-2H-indol-2-one] | 23 | >10 |
| CCn1c(-c2cnc(C)nc2)nc2c(-c3ccc4c(c3)C(C)(N[C@@H](C)C3CCC3)C(=O)N4)ncnc21 (mixture of isomers) [Compound 2-27, 3-{[(1S)-1-cyclobutylethyl]amino}-5-[9-ethyl-8-(2-methylpyrimidin-5-yl)-9H-purin-6-yl]-3(R and S)-methyl-1,3-dihydro-2H-indol-2-one] | 13 | >10 |
| CCn1c(-c2cnc(C)nc2)nc2c(-c3ccc4c(c3)C(C)(NCC3(C)CCC3)C(=O)N4)ncnc21 (racemic) [Compound 2-18, (R and S)-5-[9-ethyl-8-(2-methylpyrimidin-5-yl)-9H-purin-6-yl]-3-methyl-3-{[(1-methylcyclobutyl)methyl]amino}-1,3-dihydro-2H-indol-2-one] | 8 | >10 |
| CCn1c(-c2cnc(C)nc2)nc2c(-c3cnc4c(c3)C(C)(CC(C)C)C(=O)N4)ncnc21 (single isomer, unassigned) [Compound 1-13, 5-(9-ethyl-8-(2-methylpyrimidin-5-yl)-9H-purin-6-yl)-3-isobutyl-3-methyl-1,3-dihydro-2H-pyrrolo[2,3-b]pyridin-2-one] | 370 | >10 |
| CCn1c(-c2cnc(C)nc2)nc2c(-c3ccc4c(c3)C(C)(NC[C@H]3CCCO3)C(=O)N4)ncnc21 (mixture of isomers) [Compound 2-22, 5-[9-ethyl-8-(2-methylpyrimidin-5-yl)-9H-purin-6-yl]-3(R and S)-methyl-3-{[(2R)-tetrahydrofuran-2-ylmethyl]amino}-1,3-dihydro-2H-indol-2-one] | 26 | >10 |
| CCn1c(-c2cnc(C)nc2)nc2c(-c3ccc4c(c3)C(C)(N3C[C@@H](F)[C@H](F)C3)C(=O)N4)ncnc21 (single isomer, unassigned) [Compound 2-61, 3-(R or S)-((3R,4R)-3,4-difluoropyrrolidin-1-yl)-5-(9-ethyl-8-(2-methylpyrimidin-5-yl)-9H-purin-6-yl)-3-methylindolin-2-one] | 35 | >10 |
| CCn1c(-c2cnc(C)nc2)nc2c(-c3ccc4c(c3)C(C)(NC3CCOCC3)C(=O)N4)ncnc21 (racemic) [Compound 2-25, (R and S)-5-[9-ethyl-8-(2-methylpyrimidin-5-yl)-9H-purin-6-yl]-3-methyl-3-(tetrahydro-2H-pyran-4-ylamino)-1,3-dihydro-2H-indol-2-one] | 28 | >10 |
| Cc1ncc(-c2nc3c(-c4ccc5c(c4)C(C)(NCC(C)(C)F)C(=O)N5)ncnc3n2C)cn1 (single isomer, unassigned) [Compound 2-68, (R or S)-3-((2-fluoro-2-methylpropyl)amino)-3-methyl-5-(9-methyl-8-(2-methylpyrimidin-5-yl)-9H-purin-6-yl)indolin-2-one] | 2 | >10 |
| CCn1c(C(F)F)nc2c(-c3ccc4c(c3)C(C)(Cc3ccccc3)C(=O)N4)ncnc21 (single isomer, unassigned) [Compound 1-23, (R or S)-benzyl-5-(8-(difluoromethyl)-9-ethyl-9H-purin-6-yl)-3-methylindolin-2-one] | 27 | >10 |
| CCn1c(-c2cnc(C)nc2)nc2c(-c3ccc4c(c3)C(C)(N[C@H](C)C3CC3)C(=O)N4)ncnc21 (mixture of isomers) [Compound 2-11, 3-{[(1R)-1-cyclopropylethyl]amino}-5-[9-ethyl-8-(2-methylpyrimidin-5-yl)-9H-purin-6-yl]-3(R and S)-methyl-1,3-dihydro-2H-indol-2-one] | 15 | >10 |

Further lines, results first:

| IC50 [1] [nM] | Relative Selectivity versus PI3Kalpha [2] | Structure (SMILES) |
| --- | --- | --- |
| 14 | >10 | CCn1c(-c2cnc(C)nc2)nc2c(-c3ccc4c(c3)C(C)(Cc3ccccc3)N(C)C4=O)ncnc21 (single isomer, unassigned) [Compound 4-12, (R or S)-3-benzyl-5-[9-ethyl-8-(2-methylpyrimidin-5-yl)-9H-purin-6-yl]-2,3-dimethyl-2,3-dihydro-1H-isoindol-1-one] |
| 5 | >10 | CCn1c(-c2cnc(C)nc2)nc2c(-c3ccc4oc(=O)n(C(C)C5CC5)c4c3)ncnc21 (single isomer, unassigned) [Compound 5-6, (R or S)-3-(1-cyclopropylethyl)-5-[9-ethyl-8-(2-methylpyrimidin-5-yl)-9H-purin-6-yl]-1,3-benzoxazol-2(3H)-one] |
| 14 | >10 | CCn1c(-c2cnc(C)nc2)nc2c(-c3ccc4oc(=O)n(C(C)c5ccccc5)c4c3)ncnc21 (single isomer, unassigned) [Compound 5-1, (R or S)-5-[9-ethyl-8-(2-methylpyrimidin-5-yl)-9H-purin-6-yl]-3-(1-phenylethyl)-1,3-benzoxazol-2(3H)-one] |
| 63 | >10 | CCn1c(-c2cnc(C)nc2)nc2c(-c3ccc4c(c3)C3(CCN(C(=O)C5CC5)C3)C(=O)N4)ncnc21 (single isomer, unassigned) [Compound 3-5, (R or S)-1′-(cyclopropanecarbonyl)-5-(9-ethyl-8-(2-methylpyrimidin-5-yl)-9H-purin-6-yl)spiro[indoline-3,3′-pyrrolidin]-2-one] |
| 99 | >10 | CCn1c(-c2cnc(C)nc2)nc2c(-c3ccc4c(c3)C3(CCCO3)C(=O)N4)ncnc21 (single isomer, unassigned) [Compound 3-31, (R or S)-5′-(9-ethyl-8-(2-methylpyrimidin-5-yl)-9H-purin-6-yl)-4,5-dihydro-3H-spiro[furan-2,3′-indolin]-2′-one] |
| 128 | >10 | CCn1c(-c2cnc(C)nc2)nc2c(-c3ccc4c(c3)C(C)(CC(C)C)NC4=O)ncnc21 (single isomer, unassigned) [Compound 4-8, (R or S)-5-[9-ethyl-8-(2-methylpyrimidin-5-yl)-9H-purin-6-yl]-3-methyl-3-(2-methylpropyl)-2,3-dihydro-1H-isoindol-1-one] |
| 26 | >10 | CCn1c(-c2cnc(C)nc2)nc2c(-c3ccc4c(c3)C3(CCN(C(C)C)C3)C(=O)N4)ncnc21 (single isomer, unassigned) [Compound 3-36, (R or S)-5-(9-ethyl-8-(2-methylpyrimidin-5-yl)-9H-purin-6-yl)-1′-isopropylspiro[indoline-3,3′-pyrrolidin]-2-one] |
